Measured values published in BindingDB's records for doi:10.1016/0960-894X(95)00037-T (1995).

What was measured:
B2 bradykinin receptor [1] = molecular target: T1, B2 bradykinin receptor (Homo sapiens, UniProt P30411); assay: (§1) Tested for binding affinity against human IMR-90 Bradykinin receptor B2
T1 sequence (P30411 whole entry): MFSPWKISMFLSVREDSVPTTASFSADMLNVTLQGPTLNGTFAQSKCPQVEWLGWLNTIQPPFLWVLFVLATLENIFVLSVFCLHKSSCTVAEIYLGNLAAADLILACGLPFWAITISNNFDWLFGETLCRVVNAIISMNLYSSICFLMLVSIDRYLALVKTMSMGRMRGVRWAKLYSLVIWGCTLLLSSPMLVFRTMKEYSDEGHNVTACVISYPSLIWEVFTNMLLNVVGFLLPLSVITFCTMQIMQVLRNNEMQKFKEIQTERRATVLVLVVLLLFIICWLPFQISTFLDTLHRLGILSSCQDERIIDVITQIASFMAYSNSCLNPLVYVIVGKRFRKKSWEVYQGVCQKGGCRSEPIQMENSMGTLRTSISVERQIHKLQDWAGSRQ

B2 bradykinin receptor [2] = molecular target: T1, B2 bradykinin receptor; assay: ChEBML_40431; text: as §1

Ki (B2 bradykinin receptor [1]): 1 µM | Ki (B2 bradykinin receptor [2]): 1 µM
Structure (SMILES): CCCC[P+](CCCC)(CCCC)Cc1ccc(NC(=O)C2Cc3ccccc3CN2C(=O)[C@H](CCc2ccccc2)N/C(=N/C2CCCCC2)NC2CCCCC2)cc1 (stereo partly drawn) [tributyl[(4-{2-[(2S)-2-{[(1E)-(cyclohexylamino)(cyclohexyliminiumyl)methyl]amino}-4-phenylbutanoyl]-1,2,3,4-tetrahydroisoquinoline-3-amido}phenyl)methyl]phosphanium dichloride]
